pEC50: −log10 of the molar value.
Target: T1, integrin α4β1 (very late activation antigen-4, VLA-4) (Homo sapiens, UniProt P05556+P13612)
T1 construct: gene ITGA4; endogenous integrin on Jurkat cells; with integrin β1 (ITGB1)
Experiment: static adhesion of Jurkat cells to VCAM-1; blocked by anti-α[…] or anti-β[…] mAb
Type: cell-based

T1 sequence (P13612 34-1032): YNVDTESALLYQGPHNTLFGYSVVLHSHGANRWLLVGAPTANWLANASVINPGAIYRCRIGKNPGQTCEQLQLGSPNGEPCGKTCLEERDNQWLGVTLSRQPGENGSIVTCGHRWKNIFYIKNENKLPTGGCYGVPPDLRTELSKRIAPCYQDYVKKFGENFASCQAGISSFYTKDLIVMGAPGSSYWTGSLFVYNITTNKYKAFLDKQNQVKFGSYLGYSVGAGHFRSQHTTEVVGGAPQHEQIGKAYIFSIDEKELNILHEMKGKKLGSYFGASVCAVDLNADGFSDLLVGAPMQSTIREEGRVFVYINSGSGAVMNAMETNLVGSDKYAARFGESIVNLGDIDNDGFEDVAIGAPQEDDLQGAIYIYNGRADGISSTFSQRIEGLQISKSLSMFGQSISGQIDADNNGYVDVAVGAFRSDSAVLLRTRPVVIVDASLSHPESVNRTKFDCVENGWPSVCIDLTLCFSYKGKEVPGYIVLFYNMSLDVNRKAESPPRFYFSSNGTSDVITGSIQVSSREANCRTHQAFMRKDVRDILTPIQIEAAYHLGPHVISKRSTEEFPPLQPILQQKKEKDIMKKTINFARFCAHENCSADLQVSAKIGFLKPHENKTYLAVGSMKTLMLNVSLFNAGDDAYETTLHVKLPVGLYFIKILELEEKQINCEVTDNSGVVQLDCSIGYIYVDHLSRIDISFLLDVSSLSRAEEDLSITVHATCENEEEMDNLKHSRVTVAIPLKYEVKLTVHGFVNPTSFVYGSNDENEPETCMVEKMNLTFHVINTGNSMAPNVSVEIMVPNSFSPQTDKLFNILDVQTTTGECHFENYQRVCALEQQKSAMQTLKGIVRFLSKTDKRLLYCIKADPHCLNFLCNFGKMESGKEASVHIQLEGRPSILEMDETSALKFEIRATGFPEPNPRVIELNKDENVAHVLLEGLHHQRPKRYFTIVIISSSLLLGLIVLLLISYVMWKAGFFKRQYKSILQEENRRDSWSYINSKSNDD
T1 sequence (P05556 21-798): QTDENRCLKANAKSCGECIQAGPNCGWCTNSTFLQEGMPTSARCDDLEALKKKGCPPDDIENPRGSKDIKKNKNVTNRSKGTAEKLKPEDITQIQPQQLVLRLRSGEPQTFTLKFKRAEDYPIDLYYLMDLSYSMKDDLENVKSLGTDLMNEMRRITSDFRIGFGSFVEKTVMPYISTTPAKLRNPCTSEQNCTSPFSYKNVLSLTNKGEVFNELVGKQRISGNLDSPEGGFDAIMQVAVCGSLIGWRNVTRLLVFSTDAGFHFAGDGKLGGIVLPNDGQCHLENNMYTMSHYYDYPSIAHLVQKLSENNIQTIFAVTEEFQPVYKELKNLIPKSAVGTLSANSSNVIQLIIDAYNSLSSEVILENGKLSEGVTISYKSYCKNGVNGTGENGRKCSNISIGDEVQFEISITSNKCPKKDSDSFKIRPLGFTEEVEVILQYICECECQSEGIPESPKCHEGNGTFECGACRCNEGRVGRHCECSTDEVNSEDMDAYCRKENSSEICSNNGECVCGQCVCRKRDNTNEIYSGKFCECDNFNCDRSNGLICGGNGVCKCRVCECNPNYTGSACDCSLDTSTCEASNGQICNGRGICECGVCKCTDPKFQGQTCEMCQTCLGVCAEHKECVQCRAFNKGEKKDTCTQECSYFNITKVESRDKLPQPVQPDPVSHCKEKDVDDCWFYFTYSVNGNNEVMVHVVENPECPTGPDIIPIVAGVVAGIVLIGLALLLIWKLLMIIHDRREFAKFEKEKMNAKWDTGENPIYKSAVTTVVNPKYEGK

O=C(OCCOCCOCCOC(=O)N(Cc1cccs1)Cc1cccs1)N(Cc1cccs1)Cc1cccs1 [7HP349]
pEC50: 5.70
